Drawing on US9949979B2, “Use of inhibitors of the activity or function of PI3K” (NOVARTIS AG, priority 2011, dated 2018), this text covers IC50 for 1 compound.

In this assay the test system is TLR9. The experiment in a line: TLR9-induced IFN-alpha in murine splenocytes (CpG1585, ELISA). It counts as cell-based, 129/Sv mice. The note with it: Mus musculus, Splenocyte; read-out: TLR9-ligand induced IFNα in murine splenocytes IC50. The protocol: 2.3 Determination of TLR9-Induced IFN-Alpha in Murine Splenocytes
Excess fat was trimmed from the spleens prior to mashing the spleen through a […] cell strainer using a plunger from a 5 ml syringe. A single cell suspension was prepared and the volume was adjusted to 15 ml in a 50 ml Falcon tube using cold PBS. Cells were centrifuged at 1500 rpm for 5 minutes at 4° C. degrees prior to removal of supernatant and re-suspension in 5 ml of red blood cell lysis buffer per spleen and incubation for 5 minutes at room temperature. Ice cold PBS (30 ml) was added to the cells prior to centrifugation at 1500 rpm for 5 minutes at 4° C. The supernatant was removed and the cells were washed twice with 40 ml of murine splenocyte culture media (MSCM). […] Cells were re-suspended in 10-20 ml of MSCM and counted using a Countess cell counter. […]
After overnight culture, cells were transferred to 96-well V-bottomed plates and centrifuged at 2000 rpm for 5 minutes at room temperature. Subsequently 150 μl of each culture supernatant was transferred to 96-well flat-bottomed plates and […] were measured using commercially available mouse IFN-alpha sandwich ELISA kit (PBL Interferon Source). […] IFN-alpha levels were measured within 5 minutes using a SpectraMax 190 Plate Reader (450 nm) and analyzed using SoftMax Pro and GraphPad Prism software.
(In general: In an ELISA, binding on a coated surface is turned into a signal by an enzyme label.)

Each structure is given as a SMILES string. pIC50: −log10 of the molar value.

In general, pIC50 refers to −log10 of the IC50, conventionally taken in molar units.

Turning to `CCC(=O)N1CC[C@H](Nc2ncnc3c2CN(c2cnc(OC)c(C(F)(F)F)c2)CC3)C1` [Example 67, 1-{(S)-3-[6-(6-Methoxy-5-trifluoromethyl-pyridin-3-yl)-5,6,7,8-tetrahydro-pyrido[4,3-d]pyrimidin-4-ylamino]-pyrrolidin-1-yl}-propan-1-one], the pIC50 was less than 5.65.
